The record followed here is PMC6934871, “High resolution structural and functional analysis of a hemopexin motif protein from Dolichos” (Scientific Reports, 2019).

In this assay the target is DC25. The assay can be described thus: SPR (Biacore T200, DC25 immobilized on CM5, […] Langmuir fit); also inhibits peroxidase activity of purified DC25. In kind it is binding, Lablab purpureus.

Each structure is given as a SMILES string.

The molecule `O=S(=O)(O)c1ccc(-c2c3nc(c(-c4ccc(S(=O)(=O)O)cc4)c4ccc([nH]4)c(-c4ccc(S(=O)(=O)O)cc4)c4nc(c(-c5ccc(S(=O)(=O)O)cc5)c5ccc2[nH]5)C=C4)C=C3)cc1` [TPPS4] registered a Kd of 1210 nM.
